Reference: US11191769B2, “Fused thiophene compounds” (BioTheryX, Inc., priority 2018, dated 2021)

Legend:
Assay type in all cases: cell-based
[1] = biological target: T1, IKAROS (Homo sapiens, UniProt Q13422+Q96SW2); assay: IKAROS degradation assay (Western blot, MV-4-11 cells); conditions: 6-8 hours; for IKAROS % degradation at 1 µM: MV4-11, 1 μM
T1 construct: endogenous in cells; host or cells: MV-4-11
Procedure: (§1) MV-4-11 cells were grown in RPMI 1640 media supplemented with 10% fetal bovine serum, streptomycin and penicillin.
(§2) Cells were cultured at approximately 10^6 cells per mL and incubated in DMSO or the indicated compound for 6-8 hours. Whole cell extracts were prepared using RIPA buffer according to manufacturer's protocol (Pierce). Briefly, 3×10^6 cells were washed once in PBS, the cell pellets were resuspended in RIPA buffer and allowed to incubate for 15 minutes on ice. Cells debris was removed by centrifugation and the cleared whole cell lysates were transferred to new tubes for further analysis.
(§3) For Western blot analysis, whole cell protein extracts were separated on 4-12% SDS-polyacrylamide gels, transferred to nitrocellulose and probed with the indicated primary antibodies. Membranes were subsequently washed and probed with the appropriate IRDye secondary antibodies (LI-COR). The signal was detected using the Odyssey Imaging System (LI-COR).
(§4) The following antibodies were used in these studies: Anti-eRF3/GSPT1: Abcam, ab126090 (Cambridge, Mass.); Anti-Ikaros: Abcam, ab191394 (Cambridge, Mass.); Anti-CK1α: Abcam, ab108296 (Cambridge, Mass.); β-actin (8H10D10) mouse monoclonal antibody: Cell Signaling Technology, #3700 (Danvers, Mass.); IRDye 680RD Goat anti-rabbit antibody: LI-COR, 926-68071 (Lincoln, Nebr.); IRDye 800CW Goat anti-mouse antibody: LI-COR, 926-32210 (Lincoln, Nebr.).
(§5) In each of Tables 1-4, the % degradation values are reported as “A”, “B”, “C”, or “D”. “A” represents a % degradation value of less than 25% (value<25%). “B” represents a % degradation value of equal to or more than 25% and less than 50% (25%≤value<50%). “C” represents a % degradation value of equal to or more than 50% and less than 75% (50%≤value <75%). “D” represents a % degradation value of equal to or more than 75% (value≥75%).

[2] = biological target: T2, CK1α (Homo sapiens, UniProt P48729+Q96SW2); assay: CK1α degradation assay (Western blot, MV-4-11 cells); conditions: MV4-11, 6-8 hours
T2 construct: Whole cell extracts were prepared using RIPA buffer; endogenous in cells; host or cells: MV-4-11
Procedure: as §1, §2, §3, §4, §5

[3] = biological target: T3, GSPT1 (Homo sapiens, UniProt P15170+Q96SW2); assay: GSPT1 degradation assay (Western blot, MV-4-11 cells); conditions: 6-8 hours
T3 construct: Whole cell extracts were prepared using RIPA buffer; endogenous in cells; host or cells: MV-4-11
Procedure: as §1, §2, §3, §4, §5

[4] = system: IL-2; assay: IL-2 fold-change assay, anti-CD3 stimulated PBMCs, Mesoscale; conditions: PBMC, PBMCs on anti-human CD3 (OKT3) coated plates, 24 h, fold difference from the DMSO control
Procedure: For the IL-2 analysis, 96 well plates were precoated with 1 μg/mL anti-human CD3 antibody (OKT3, eBioscience Inc., San Diego, Calif.). After washing with PBS, the indicated compound was added (50 μL/well) followed by PBMCs diluted at 3-4 million cells/mL (150 μL/well). Plates were incubated for 24 h and the supernatants collected for Mesoscale IL-2 analysis. IL-2 activity is measured as fold difference from the DMSO control.
(§6) In each of Tables 5-7, the % inhibition values are reported as “A”, “B”, “C”, or “D”. “A” represents a % inhibition value of less than 50% (value <50%). “B” represents a % inhibition value of equal to or more than 50% and less than 70% (50%≤value<70%). “C” represents a % inhibition value of equal to or more than 70% and less than 90% (70%≤value<90%). “D” represents a % inhibition value of equal or more than 90% (value≥90%). In Table 8, the fold-change values are reported as “A”, “B”, “C”, or “D”. “A” represents a fold-change value of equal to or less than 1 (value≤1). “B” represents a fold-change value of more than 1 and equal to or less than 2 (1<value≤2). “C” represents a fold-change value of more than 2 and equal to or less than 3 (2<value≤3). “D” represents a fold-change value of more than 3 (value>3).

[5] = system: IL-1β; assay: IL-1β inhibition assay, LPS-induced PBMCs or CD14+ monocytes, Meso Scale; conditions: 1 h pretreatment, 100 ng/mL LPS 18-24 h, supernatant, read-out: I1-1β % Inhibition at 10 μM
Procedure: (§7) Either frozen primary blood mononuclear cells (PBMCs) or frozen CD14+ mobilized peripheral blood monocytes were purchased from AllCells (PB003F, Normal Peripheral Blood MNC (Alameda, Calif.)). Cells were quick thawed, washed 1-time with RPMI-1640 (10% FBS/1% Pen-Strep) and plated in 96 well plates at 200,000 cells per well. Cells were pretreated with DMSO only or with the indicated compound for 1 h and then induced with 100 ng/mL lipopolysaccharide (LPS) for 18-24 h. The supernatant was analyzed for IL-1β, IL-6, and TNFα, using Meso Scale assay according to manufacturer's protocol. The negative control wells were treated with DMSO.
as §6

[6] = system: TNFα; assay: TNF-α inhibition assay, LPS-induced PBMCs or CD14+ monocytes, Meso Scale; conditions: 1 h pretreatment, 100 ng/mL LPS 18-24 h, supernatant
Procedure: as §7, §6

[7] = system: IL-6; assay: IL-6 inhibition assay, LPS-induced PBMCs or CD14+ monocytes, Meso Scale; conditions: 1 h pretreatment, 100 ng/mL LPS 18-24 h, supernatant
Procedure: as §7, §6

[8] = system: MOLM-13 cells; assay: MOLM-13 cell viability assay (CellTiter-Glo); conditions: Homo sapiens, MOLM-13, 72 h, 3 days, % of DMSO control
Procedure: MOLM-13 cells were cultured in RPMI 1640 media supplemented with 10% fetal bovine serum, streptomycin and penicillin, and were plated in white walled 96-well plates at 2500 cells/well. Cells were incubated in DMSO (control) or the indicated compound for 3 days at 37° C. and 5% CO2. Following the incubation period, 100 μL of CellTiterGlow (CTG) reagent (CellTiter-Glo® Luminescent Cell Viability Assay, Promega (Madison, Wis.)) was added to each well. Following a 10 minutes incubation with shaking, luminescence was measured using the EnVision Multimode plate reader.
The MOLM-13 cell viability values as % DMSO are reported as “A”, “B”, “C”, or “D”. “A” represents a % viability value of less than 25% (value<25%). “B” represents a % viability value of equal to or more than 25% and less than 50% (25%≤value<50%). “C” represents a % viability value of equal to or more than 50% and less than 75% (50%≤value<75%). “D” represents a % viability value of equal or more than 75% (value≥75%).

T2 sequence (P48729 whole entry): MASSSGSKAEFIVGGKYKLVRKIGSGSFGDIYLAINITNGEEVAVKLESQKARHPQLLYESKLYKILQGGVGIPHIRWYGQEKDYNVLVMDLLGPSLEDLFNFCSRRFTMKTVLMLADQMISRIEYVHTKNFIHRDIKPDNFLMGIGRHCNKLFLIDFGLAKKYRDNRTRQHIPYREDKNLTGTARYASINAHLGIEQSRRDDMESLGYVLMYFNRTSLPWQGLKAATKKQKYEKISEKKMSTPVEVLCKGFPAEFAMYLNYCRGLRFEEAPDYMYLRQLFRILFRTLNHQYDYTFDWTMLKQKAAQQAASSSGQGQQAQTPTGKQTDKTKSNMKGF
T2 sequence (Q96SW2 whole entry): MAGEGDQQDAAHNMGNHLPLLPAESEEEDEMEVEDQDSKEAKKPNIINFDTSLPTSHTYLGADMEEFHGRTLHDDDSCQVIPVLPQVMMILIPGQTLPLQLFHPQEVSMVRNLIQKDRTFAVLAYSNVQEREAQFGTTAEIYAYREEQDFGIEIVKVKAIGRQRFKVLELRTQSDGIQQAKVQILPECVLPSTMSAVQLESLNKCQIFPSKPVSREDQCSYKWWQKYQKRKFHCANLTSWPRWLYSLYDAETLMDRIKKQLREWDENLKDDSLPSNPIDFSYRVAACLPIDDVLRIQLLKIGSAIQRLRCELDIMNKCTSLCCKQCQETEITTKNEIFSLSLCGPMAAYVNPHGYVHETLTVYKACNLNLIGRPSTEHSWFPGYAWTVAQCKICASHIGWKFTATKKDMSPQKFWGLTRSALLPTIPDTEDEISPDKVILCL
T2 sequence (Q16531 whole entry partner): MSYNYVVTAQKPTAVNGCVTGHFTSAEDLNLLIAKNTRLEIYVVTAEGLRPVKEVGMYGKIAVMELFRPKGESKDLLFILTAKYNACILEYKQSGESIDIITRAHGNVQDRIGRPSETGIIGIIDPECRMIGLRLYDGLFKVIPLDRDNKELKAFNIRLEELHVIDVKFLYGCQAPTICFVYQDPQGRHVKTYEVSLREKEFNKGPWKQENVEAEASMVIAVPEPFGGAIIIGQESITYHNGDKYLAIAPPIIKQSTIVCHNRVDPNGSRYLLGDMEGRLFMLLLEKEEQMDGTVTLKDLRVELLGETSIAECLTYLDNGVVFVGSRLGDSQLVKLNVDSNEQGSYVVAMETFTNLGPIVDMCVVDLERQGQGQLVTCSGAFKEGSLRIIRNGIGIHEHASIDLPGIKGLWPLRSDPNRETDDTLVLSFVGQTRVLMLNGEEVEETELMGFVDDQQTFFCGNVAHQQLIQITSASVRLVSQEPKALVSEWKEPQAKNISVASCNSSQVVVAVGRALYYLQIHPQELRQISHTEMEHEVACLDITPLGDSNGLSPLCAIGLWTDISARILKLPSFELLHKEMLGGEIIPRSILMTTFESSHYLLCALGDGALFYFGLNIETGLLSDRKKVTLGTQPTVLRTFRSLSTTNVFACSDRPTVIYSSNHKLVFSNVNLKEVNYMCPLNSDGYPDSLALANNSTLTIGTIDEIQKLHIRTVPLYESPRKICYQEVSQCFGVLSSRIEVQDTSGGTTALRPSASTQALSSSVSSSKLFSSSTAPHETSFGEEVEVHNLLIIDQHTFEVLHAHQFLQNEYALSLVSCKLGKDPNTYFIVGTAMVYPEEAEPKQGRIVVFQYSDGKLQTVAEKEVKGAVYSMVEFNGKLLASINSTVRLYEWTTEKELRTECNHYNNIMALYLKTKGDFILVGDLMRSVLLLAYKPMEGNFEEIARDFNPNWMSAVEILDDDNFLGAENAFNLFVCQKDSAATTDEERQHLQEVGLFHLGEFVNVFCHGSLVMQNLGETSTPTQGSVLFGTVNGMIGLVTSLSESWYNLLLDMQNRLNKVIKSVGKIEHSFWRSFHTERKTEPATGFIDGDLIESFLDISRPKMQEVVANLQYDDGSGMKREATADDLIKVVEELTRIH
T1 sequence (Q13422 whole entry): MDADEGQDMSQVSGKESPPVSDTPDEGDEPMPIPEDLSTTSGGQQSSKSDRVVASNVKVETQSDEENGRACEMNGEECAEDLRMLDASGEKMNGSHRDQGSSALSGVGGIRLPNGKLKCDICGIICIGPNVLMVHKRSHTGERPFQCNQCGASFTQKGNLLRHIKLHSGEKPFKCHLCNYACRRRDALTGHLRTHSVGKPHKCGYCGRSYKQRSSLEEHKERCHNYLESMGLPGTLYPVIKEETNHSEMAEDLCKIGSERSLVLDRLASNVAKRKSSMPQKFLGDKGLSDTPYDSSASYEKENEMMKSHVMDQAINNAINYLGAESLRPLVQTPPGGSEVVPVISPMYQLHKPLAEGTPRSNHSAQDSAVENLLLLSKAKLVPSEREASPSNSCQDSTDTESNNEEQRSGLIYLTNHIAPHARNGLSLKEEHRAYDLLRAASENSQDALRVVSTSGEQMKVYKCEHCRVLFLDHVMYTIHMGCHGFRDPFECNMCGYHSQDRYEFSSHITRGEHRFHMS
T1 sequence (Q96SW2 whole entry): as the sequence (Q96SW2 whole entry) above
T1 sequence (Q16531 whole entry partner): as the sequence (Q16531 whole entry partner) above
T3 sequence (P15170 whole entry): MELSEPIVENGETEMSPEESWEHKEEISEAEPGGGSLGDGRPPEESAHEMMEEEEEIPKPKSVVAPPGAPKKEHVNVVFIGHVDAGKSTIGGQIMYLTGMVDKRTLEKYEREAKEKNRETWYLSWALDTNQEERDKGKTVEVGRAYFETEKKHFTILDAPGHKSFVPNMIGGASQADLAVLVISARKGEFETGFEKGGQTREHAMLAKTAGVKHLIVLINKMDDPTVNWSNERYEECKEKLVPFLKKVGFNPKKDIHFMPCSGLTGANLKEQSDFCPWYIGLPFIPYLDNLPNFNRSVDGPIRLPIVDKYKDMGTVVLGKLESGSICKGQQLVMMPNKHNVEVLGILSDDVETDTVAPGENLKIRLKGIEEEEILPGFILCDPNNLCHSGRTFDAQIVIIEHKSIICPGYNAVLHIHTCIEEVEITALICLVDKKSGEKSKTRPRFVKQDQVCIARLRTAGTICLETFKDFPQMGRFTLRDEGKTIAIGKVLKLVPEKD
T3 sequence (Q96SW2 whole entry): as the sequence (Q96SW2 whole entry) above
T3 sequence (Q16531 whole entry partner): as the sequence (Q16531 whole entry partner) above

Structure (SMILES)	IKAROS % degradation at 1 µM [1] [%]	percent degradation at 1 µM [2] [%]	GSPT1 % Degradation at 1 μM [3]	fold induction at 10 µM [4]	inhibition at 10 µM [5] [%]	inhibition at 10 µM [6] [%]	inhibition at 10 µM [7] [%]	viability at 10 µM [8] [%]	IKAROS % Degradation at 10 μM ([1]; 10 μM)
O=C1CC[C@H](N2Cc3c(OCc4ccc(CN5CCOCC5)cc4)csc3C2=O)C(=O)N1 [Compound 2, (S)-3-(3-((4-(morpholinomethyl)benzyl)oxy)-6-oxo-4H-thieno[2,3-c]pyrrol-5(6H)-yl)piperidine-2,6-dione]			B (“B” represents a % degradation value of equal to or more than 25% and less than 50% (25%≤value<50%))	1 to 2	< 50	< 50			
CC1COCC(C)N1Cc1ccc(OCc2scc3c2CN([C@H]2CCC(=O)NC2=O)C3=O)cc1 (stereo partly drawn) [Compound 19, (3S)-3-(1-((4-((3,5-dimethylmorpholino)methyl)phenoxy)methyl)-4-oxo-4H-thieno[3,4-c]pyrrol-5(6H)-yl)piperidine-2,6-dione]	50 to 75	≥ 75	C (“C” represents a % degradation value of equal to or more than 50% and less than 75% (50%≤value <75%))	≤ 1	70 to 90	70 to 90	< 50	50 to 75	
CCN(CC)Cc1ccc(OCc2scc3c2CN([C@H]2CCC(=O)NC2=O)C3=O)cc1 [Compound 14, (S)-3-(1-((4-((diethylamino)methyl)phenoxy)methyl)-4-oxo-4H-thieno[3,4-c]pyrrol-5(6H)-yl)piperidine-2,6-dione]		50 to 75		2 to 3	70 to 90	70 to 90	< 50	50 to 75	B (“B” represents a % degradation value of equal to or more than 25% and less than 50% (25%≤value<50%))

Second part, led by results:

IKAROS % degradation at 1 µM [1] [%]	percent degradation at 1 µM [2] [%]	Structure (SMILES)	GSPT1 % Degradation at 1 μM [3]	fold induction at 10 µM [4]	inhibition at 10 µM [5] [%]	inhibition at 10 µM [6] [%]	inhibition at 10 µM [7] [%]	viability at 10 µM [8] [%]	IKAROS % Degradation at 10 μM ([1]; 10 μM)
25 to 50	25 to 50	O=C1CCC(N2Cc3c(CCc4ccc(CN5CCOCC5)cc4)csc3C2=O)C(=O)N1 (stereo not shown) [Compound 4]	B (“B” represents a % degradation value of equal to or more than 25% and less than 50% (25%≤value<50%))	2 to 3					
≥ 75	≥ 75	O=C1CC[C@H](N2Cc3c(csc3COc3ccc(CN4CCOCC4)cc3)C2=O)C(=O)N1 [Compound 1, (S)-3-(1-((4-(morpholinomethyl)phenoxy)methyl)-4-oxo-4H-thieno[3,4-c]pyrrol-5(6H)-yl)piperidine-2,6-dione]	C (“C” represents a % degradation value of equal to or more than 50% and less than 75% (50%≤value <75%))	1 to 2	> 90		50 to 70	50 to 75	
50 to 75	≥ 75	CC1CN(Cc2ccc(OCc3scc4c3CN([C@H]3CCC(=O)NC3=O)C4=O)cc2)CC(C)O1 (stereo partly drawn) [Compound 17, (3S)-3-(1-((4-((2,6-dimethylmorpholino)methyl)phenoxy)methyl)-4-oxo-4H-thieno[3,4-c]pyrrol-5(6H)-yl)piperidine-2,6-dione]		1 to 2	70 to 90	> 90	< 50	50 to 75	
